Calls of active or inactive are those of the source.

This note sets out measurements from ChEMBL document CHEMBL1201862, “PubChem BioAssay data set” (2004).

Data set [1] has as its target Glyceraldehyde-3-phosphate dehydrogenase (Homo sapiens, UniProt P04406).
Data set [2] concerns the target T1, Alkaline phosphatase, tissue-nonspecific isozyme (Homo sapiens, UniProt P05186).
T1 sequence (P05186 whole entry): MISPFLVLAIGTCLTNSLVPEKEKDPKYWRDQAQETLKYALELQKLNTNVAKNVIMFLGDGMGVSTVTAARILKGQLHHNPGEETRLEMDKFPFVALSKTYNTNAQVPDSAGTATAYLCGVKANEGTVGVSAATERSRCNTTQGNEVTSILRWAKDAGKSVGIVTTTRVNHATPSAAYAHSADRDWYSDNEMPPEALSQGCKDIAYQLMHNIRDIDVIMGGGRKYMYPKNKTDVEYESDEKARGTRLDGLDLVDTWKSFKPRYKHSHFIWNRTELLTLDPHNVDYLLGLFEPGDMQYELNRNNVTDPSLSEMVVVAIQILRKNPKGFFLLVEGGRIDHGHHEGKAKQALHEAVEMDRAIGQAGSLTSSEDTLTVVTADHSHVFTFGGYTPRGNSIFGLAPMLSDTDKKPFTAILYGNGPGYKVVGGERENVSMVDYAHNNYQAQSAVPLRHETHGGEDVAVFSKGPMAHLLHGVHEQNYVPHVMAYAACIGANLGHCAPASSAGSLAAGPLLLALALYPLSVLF
The experiment in a line: human TNAP enzyme inhibitors, SAR follow-up, biochemical, luminescent, dose response (AID 1056).

Data set [3] addresses T2, Ubiquitin-conjugating enzyme E2 N (Homo sapiens, UniProt P61088).
T2 sequence (P61088 whole entry): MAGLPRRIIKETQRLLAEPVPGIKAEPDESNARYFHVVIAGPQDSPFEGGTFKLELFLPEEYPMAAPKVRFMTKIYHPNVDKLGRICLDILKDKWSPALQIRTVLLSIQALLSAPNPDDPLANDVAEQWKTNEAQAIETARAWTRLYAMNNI
The format is functional.

The test system of the next data set is Escherichia coli. The experiment in a line: microbe, parasite or virus in culture.
Data set [4] has as its system HEK293. The experiment in a line: cells. The class given is functional, cell-based. The conditions noted are these: Homo sapiens.
Data set [5] relates to HEK293. The experiment in a line: NOD2 signaling inhibitors in MDP-stimulated cells, cell-based, uHTS, luminescence (AID 2001). The class given is functional. The conditions noted are these: Homo sapiens.
Data set [6] deals with HEK293. The experiment in a line: cells. The format is functional, cell-based. The settings on record: Homo sapiens. The source holds these as a separate data set.
Data set [7] relates to HEK293. The experiment in a line: NOD1 signaling inhibitors, primary screen, cell-based, luminescence, uHTS (AID 1578). The class given is functional. The settings on record: Homo sapiens.
For a further data set, the target named is Genome polyprotein (dengue virus type 2, UniProt P29990). The experiment in a line: Dengue-2 NS5 methyltransferase inhibitors, primary screen, biochemical, confirmation dose response (AID 588689). The format is functional.
Genome polyprotein, sequence (P29990 2492-3391 limits assumed): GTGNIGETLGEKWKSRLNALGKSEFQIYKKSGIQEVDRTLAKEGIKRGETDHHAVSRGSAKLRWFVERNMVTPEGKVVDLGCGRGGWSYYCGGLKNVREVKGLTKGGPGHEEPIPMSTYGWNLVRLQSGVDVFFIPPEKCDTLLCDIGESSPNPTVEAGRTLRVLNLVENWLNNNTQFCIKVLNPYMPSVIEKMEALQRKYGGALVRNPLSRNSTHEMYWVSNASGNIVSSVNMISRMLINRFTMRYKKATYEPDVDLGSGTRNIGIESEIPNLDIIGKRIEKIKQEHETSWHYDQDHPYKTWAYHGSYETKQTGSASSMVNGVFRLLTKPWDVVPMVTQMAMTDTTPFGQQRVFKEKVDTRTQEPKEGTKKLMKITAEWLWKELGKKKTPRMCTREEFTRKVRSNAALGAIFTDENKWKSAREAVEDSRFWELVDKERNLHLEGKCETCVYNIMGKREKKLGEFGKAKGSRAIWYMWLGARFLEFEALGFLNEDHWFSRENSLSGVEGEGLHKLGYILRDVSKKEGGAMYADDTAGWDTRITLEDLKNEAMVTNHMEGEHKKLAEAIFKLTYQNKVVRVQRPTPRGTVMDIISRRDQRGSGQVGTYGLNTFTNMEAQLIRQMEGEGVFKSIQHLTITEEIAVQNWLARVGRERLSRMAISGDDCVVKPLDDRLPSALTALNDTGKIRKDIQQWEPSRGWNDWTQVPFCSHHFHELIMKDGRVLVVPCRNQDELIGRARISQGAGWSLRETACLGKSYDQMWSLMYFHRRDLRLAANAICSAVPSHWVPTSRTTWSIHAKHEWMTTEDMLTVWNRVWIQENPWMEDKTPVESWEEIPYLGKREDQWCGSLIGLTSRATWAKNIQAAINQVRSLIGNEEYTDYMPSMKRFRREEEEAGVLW
The target in the next data set is T3, Leucine aminopeptidase (Plasmodium falciparum 3D7, UniProt Q8IL11).
T3 sequence (Q8IL11 whole entry): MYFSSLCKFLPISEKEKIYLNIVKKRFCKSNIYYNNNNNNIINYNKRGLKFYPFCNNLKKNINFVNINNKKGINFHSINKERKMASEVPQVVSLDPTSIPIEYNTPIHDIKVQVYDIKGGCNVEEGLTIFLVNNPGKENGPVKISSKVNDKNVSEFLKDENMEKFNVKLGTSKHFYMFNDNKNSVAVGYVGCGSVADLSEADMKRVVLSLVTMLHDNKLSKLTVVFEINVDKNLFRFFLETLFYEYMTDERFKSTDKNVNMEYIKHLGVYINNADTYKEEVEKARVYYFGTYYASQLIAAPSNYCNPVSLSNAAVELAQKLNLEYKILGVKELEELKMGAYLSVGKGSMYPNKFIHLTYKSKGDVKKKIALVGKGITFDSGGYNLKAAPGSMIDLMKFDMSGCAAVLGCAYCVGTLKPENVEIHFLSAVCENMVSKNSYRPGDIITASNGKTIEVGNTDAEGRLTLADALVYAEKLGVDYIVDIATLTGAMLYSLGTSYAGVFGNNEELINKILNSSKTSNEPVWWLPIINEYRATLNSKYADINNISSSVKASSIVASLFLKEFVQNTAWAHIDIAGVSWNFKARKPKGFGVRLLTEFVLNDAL
The experiment in a line: P. falciparum M17LAP inhibitors, primary screen, biochemical, fluorogenic H-Leu-NHMec substrate, 1536-well (AID 1619). The format is functional.

Data set [8] in a line: HEp-2 cell cytotoxicity, dose response, cytotoxicity control for RSV inhibitor project, HTS (AID 2410). The class given is functional. The conditions noted are these: human respiratory syncytial virus.
The next data set deals with T4, Coagulation factor XII (Homo sapiens, UniProt P00748).
T4 sequence (P00748 whole entry): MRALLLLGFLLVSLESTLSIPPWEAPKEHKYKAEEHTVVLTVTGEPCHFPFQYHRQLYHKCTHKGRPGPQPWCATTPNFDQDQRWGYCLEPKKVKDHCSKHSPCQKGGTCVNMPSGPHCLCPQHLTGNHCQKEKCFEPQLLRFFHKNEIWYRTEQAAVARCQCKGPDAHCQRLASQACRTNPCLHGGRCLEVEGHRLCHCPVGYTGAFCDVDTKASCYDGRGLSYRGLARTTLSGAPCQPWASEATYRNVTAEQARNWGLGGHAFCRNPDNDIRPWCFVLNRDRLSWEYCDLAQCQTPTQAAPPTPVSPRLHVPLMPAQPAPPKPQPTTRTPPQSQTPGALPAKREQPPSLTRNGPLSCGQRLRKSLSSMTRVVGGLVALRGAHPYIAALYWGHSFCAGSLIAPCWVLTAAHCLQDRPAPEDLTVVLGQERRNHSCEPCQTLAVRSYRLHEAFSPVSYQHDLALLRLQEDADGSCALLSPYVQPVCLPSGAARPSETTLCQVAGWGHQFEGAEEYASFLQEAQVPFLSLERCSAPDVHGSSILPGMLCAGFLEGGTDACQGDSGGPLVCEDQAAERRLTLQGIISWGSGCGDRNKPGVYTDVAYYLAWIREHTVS
The class given is functional.

In data set [9] the target is T5, High affinity choline transporter 1 (Homo sapiens, UniProt Q9GZV3).
T5 sequence (Q9GZV3 whole entry): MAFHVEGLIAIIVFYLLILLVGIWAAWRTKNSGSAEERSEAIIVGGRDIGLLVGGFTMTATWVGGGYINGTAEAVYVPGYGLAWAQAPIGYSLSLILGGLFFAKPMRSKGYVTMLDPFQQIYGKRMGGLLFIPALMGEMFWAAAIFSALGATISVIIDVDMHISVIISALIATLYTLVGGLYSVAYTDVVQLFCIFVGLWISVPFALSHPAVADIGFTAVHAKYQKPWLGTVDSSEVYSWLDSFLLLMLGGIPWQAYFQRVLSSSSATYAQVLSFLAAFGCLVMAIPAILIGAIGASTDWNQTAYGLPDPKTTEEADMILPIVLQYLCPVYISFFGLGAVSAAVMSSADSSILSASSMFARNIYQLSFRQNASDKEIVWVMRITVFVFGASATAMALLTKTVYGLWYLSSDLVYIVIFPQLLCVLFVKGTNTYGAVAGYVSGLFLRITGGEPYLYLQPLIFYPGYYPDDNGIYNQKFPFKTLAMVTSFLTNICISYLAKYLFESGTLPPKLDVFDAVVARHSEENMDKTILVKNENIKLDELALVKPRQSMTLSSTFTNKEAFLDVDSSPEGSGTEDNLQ
The experiment in a line: CHT inhibitors, dose response, cell-based, 5-point CRC, membrane potential dye (AID 504840). The class given is functional.

Data set [10] deals with T6, Calpain-2 catalytic subunit (Sus scrofa, UniProt P43367).
T6 sequence (P43367 whole entry): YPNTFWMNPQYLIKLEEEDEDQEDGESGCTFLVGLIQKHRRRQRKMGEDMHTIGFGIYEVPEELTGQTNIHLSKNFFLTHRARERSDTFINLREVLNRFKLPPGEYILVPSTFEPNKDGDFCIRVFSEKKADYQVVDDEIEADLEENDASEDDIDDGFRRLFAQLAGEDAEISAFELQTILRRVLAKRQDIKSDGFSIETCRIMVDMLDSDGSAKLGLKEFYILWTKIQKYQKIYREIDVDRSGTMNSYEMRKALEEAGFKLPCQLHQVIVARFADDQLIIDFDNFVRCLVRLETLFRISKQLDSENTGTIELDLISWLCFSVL
The experiment in a line: pig calpain II inhibitor potency, dose response, biochemical, fluorogenic peptide substrate (AID 1420). The format is functional.

The next data set has as its target Nonstructural protein 1 (Influenza A virus, UniProt Q194T2). The format is functional, Influenza A virus (A/California/07/2009(H1N1)).
In data set [11] the target is T7, DNA repair and recombination protein RAD54-like (Homo sapiens, UniProt Q92698).
T7 sequence (Q92698 whole entry): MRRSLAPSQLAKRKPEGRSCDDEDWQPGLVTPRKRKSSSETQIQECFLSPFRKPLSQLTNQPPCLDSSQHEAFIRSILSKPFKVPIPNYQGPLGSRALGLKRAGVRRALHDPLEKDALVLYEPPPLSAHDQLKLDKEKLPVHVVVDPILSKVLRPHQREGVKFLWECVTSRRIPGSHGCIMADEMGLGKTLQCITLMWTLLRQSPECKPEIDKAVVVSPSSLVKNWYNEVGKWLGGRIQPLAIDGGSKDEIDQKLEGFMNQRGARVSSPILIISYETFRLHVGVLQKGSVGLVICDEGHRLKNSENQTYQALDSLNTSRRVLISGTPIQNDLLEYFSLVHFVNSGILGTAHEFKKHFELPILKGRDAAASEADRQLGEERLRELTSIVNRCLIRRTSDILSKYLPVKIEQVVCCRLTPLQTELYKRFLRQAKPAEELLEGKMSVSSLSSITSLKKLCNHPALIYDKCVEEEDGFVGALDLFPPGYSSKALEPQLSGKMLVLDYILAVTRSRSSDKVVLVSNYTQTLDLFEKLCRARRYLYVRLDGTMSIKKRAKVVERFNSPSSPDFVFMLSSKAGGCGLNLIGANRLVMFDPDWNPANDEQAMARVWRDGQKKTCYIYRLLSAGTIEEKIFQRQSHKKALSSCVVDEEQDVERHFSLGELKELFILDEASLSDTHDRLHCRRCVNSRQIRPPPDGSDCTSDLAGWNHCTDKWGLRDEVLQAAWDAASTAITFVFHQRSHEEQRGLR
The experiment in a line: inhibitors of human RAD54 branch migration, confirmation, biochemical, fluorescence, cherry-picked samples, dose series (AID 651657). The format is functional.

For another data set, the target named is Cytochrome P450 3A4 (Homo sapiens, UniProt P08684).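 Further: CYP3A4 tested as one member of a cytochrome P450 panel screen.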
Cytochrome P450 3A4, sequence (P08684 whole entry): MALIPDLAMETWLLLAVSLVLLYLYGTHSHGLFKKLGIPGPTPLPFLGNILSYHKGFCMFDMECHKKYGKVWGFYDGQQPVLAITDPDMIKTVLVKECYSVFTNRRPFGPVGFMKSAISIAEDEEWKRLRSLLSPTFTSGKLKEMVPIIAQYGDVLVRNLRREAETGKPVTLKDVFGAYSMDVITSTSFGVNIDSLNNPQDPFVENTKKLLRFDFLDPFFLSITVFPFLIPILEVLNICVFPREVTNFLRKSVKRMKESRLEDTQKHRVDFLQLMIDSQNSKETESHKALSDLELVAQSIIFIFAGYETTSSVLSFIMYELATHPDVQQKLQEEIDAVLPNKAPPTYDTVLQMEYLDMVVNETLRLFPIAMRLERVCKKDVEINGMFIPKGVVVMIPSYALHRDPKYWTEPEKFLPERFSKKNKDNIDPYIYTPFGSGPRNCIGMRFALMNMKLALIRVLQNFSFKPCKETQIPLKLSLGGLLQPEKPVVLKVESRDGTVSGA

Glyceraldehyde-3-phosphate dehydrogenase, sequence (P04406 whole entry): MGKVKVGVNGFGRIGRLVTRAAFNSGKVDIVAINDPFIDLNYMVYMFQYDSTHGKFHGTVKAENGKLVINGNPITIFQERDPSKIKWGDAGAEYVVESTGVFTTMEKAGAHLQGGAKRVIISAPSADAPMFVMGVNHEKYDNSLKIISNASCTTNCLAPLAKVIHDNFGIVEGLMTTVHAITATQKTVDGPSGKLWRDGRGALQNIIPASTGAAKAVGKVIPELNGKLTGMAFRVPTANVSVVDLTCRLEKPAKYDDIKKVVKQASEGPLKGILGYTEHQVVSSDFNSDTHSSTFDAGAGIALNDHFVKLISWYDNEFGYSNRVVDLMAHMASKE
Nonstructural protein 1, sequence (Q194T2 whole entry): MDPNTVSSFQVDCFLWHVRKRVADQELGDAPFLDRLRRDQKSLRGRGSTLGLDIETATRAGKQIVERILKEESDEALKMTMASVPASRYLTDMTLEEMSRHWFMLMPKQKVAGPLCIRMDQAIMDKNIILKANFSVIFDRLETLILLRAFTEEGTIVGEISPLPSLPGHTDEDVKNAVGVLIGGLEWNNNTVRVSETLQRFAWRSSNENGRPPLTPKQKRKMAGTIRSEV

On to `CCOC(=O)c1nnc(-c2ccccc2)o1`, for which the IC50 in data set [1] is > 100 µM (not active); in [2], > 100 µM (inactive).
For `Cc1ccc2c(c1)C1CN(C)CCC1N2C(=O)CCCN1C(=O)c2cccc3cccc(c23)C1=O` (centres undefined), the IC50 in data set [3] is > 20 µM (inactive).
As to `CCNC(=O)OCC12CC3CC(CC(C3)C1)C2`, in the data set with Escherichia coli, the half-maximal activity concentration (AC50) was 33.5 µM (active).
For `COc1ccc(NC(=O)Nc2nnc(-c3ccncc3)s2)cc1`, the IC50 with HEK293 [4] is > 20 µM (inactive); with HEK293 [5], 6.01 µM (active); with HEK293 [6] it was 5.85 µM (active). Further, in the data set on HEK293 [7], the EC50 is 5.39 µM (active).
Turning to `O=C1/C(=C/c2ccc(C(=O)O)cc2)CCC/C1=C\c1ccc(C(=O)O)cc1`, the IC50 was > 100 µM (active) on Genome polyprotein and 62.7 µM (active) at Leucine aminopeptidase.
Take `CCn1c2ccc(C)cc2c2nnc(SCCN3CCOCC3)nc21`: in the data set on Escherichia coli, the AC50 was 89.7 µM (active).
`Cc1c(NC(=S)NC(=O)c2ccc(-c3ccc(Cl)cc3)o2)cccc1C(=O)O`: the cytotoxic concentration (CC50) in [8] is 35.4 µM (active). Moreover, the 50% inhibitory concentration (IC50) at Leucine aminopeptidase is 29.7 µM (active).
Turning to `Cc1ccc(-c2[nH]nc3c2C(c2ccoc2)C(C#N)=C(N)O3)cc1C` (centres undefined), the IC50 on Leucine aminopeptidase was 3.65 µM (active).
`Cc1ccc(NC(=O)NCc2ccc3c(c2)OCO3)cc1`: the IC50 on Coagulation factor XII is > 50 µM (inactive).
Take `O=C(O)C1CCN(c2nc(-c3ccccc3)nc3c2oc2ccccc23)CC1`: the IC50 is 9.12 µM (active) in [9] and 30.1 µM (active) at Leucine aminopeptidase.
In the case of `COc1ccc(OC)c(CNc2ccc([N+](=O)[O-])cc2C)c1`, the IC50 in [10] was 8.98 µM (not active); on Coagulation factor XII, > 50 µM (inactive).
For `COc1ccccc1NS(=O)(=O)c1cc(NC(C)=O)ccc1N1CCCCC1`, the AC50 in the data set on Escherichia coli was 30.4 µM (active).
Regarding `CN(C(=O)COC(=O)c1cc(-c2ccc(Br)cc2)[nH]n1)C1CCCCC1`, the results for the IC50 in data set [1] and in data set [2] were > 100 µM (not active) and > 100 µM (inactive), respectively.
With `COc1ccc(NC(=O)CN2C(=O)CSC(C)C2=O)cc1` (centres undefined), at Leucine aminopeptidase, the IC50 was 3.83 µM (active).
Take `CCc1nc2ccccc2c(C(=O)OCc2nc3ccccc3c(=O)[nH]2)c1C`: the IC50 in data set [3] is > 20 µM (inactive).
With `O=C(N[C@H](C(=O)O)c1ccccc1)C1CCC(Cn2nnc3ccccc3c2=O)CC1` (some centres undefined), on Coagulation factor XII, the IC50 is > 50 µM (inactive).
As for `c1cncc(-n2cnnn2)c1`, the figures for the IC50 in data set [1] and in data set [2] were > 100 µM (not active) and > 100 µM (inactive), respectively.
On to `C=CC(=O)Nc1ccc(N(C)c2ccnc(Nc3ccc(N4CCN(C)CC4)cc3)n2)cc1`, for which the IC50 was > 20 µM (inactive) in [3] and 25.5 µM (active) at Nonstructural protein 1. The AC50 in [11] is 21 µM (active).
For the compound `COc1ccccc1N1CCN(C/C(O)=C(\C#N)c2nc(-c3ccccc3)cs2)CC1`, the IC50 at Coagulation factor XII was > 50 µM (inactive).
Turning to `CC(C)/N=C/c1c(O)[nH]c2ccccc12`, on Coagulation factor XII, the IC50 was > 50 µM (inactive).
As for `Cn1c(=O)[nH]c2ncn(C)c2c1=O` [PARAXANTHINE], the AC50 entry is “inconclusive” at Cytochrome P450 3A4 and 23.3 µM (active) in the data set on Escherichia coli.
